According to patent US7098340B2, “Benzyl sulfonamide derivatives” (Warner Lambert Company LLC, priority 2003, dated 2006):

Target: T1, androgen receptor (Homo sapiens, UniProt P10275)
T1 sequence (P10275 1-920 Q868H): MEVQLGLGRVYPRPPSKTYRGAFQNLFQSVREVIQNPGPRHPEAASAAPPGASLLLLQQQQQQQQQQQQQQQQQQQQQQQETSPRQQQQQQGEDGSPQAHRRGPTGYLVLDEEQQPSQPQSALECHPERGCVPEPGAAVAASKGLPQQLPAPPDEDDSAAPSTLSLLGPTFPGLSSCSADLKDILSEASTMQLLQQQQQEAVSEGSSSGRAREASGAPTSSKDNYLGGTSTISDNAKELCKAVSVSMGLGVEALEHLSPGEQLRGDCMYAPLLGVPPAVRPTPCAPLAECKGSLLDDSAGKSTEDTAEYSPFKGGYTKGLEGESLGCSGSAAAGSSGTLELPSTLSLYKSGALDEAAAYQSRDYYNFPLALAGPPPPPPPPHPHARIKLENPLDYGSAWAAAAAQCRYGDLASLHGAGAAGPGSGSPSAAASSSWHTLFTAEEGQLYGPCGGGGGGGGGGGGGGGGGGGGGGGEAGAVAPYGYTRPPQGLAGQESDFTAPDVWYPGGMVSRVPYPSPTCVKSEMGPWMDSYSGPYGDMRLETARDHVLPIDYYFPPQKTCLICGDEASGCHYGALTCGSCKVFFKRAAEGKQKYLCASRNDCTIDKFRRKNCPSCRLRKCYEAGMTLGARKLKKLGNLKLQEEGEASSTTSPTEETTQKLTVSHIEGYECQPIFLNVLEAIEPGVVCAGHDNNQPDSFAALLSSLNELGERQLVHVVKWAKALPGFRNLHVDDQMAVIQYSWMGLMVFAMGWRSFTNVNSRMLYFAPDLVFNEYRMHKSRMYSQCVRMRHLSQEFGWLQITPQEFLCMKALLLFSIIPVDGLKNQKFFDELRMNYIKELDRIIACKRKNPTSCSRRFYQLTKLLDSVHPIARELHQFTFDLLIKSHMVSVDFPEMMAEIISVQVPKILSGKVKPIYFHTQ
Assay: AR Antagonist Cell Assay (MMTV-luciferase reporter, DHT-stimulated)
Assay type: cell-based
Settings: MDA-MB453-MMTV clone 54-19 cells; antagonism of 100 pM DHT, 17 hr, luciferase readout
Method: The compounds ability to antagonize the effects of androgen on the androgen receptor were determined in the protocol described immediately below.
Experimental Procedure for AR Antagonist Cell Assay
Cell line: MDA-MB453-MMTV clone 54–19. This cell line is a stable transfected cell line with MDA-MB453 cell background (human breast tumor cell expressing high level of androgen receptor). A MMTV minimal promoter containing ARE was first cloned in front of a firefly luciferase reporter gene. Then the cascade was cloned into transfection vector pUV120puro. Electroporation method was used for transfecting MDA-MB-453 cell. Puromycin resistant stable cell line was selected.
Cell Culture Media and Reagents:
Culture medium: DMEM (high glucose, Gibco cat #: 11960-044), 10% FBS, and 1% L-glutamine
Plating medium: DMEM (phenol red free), 10% charcoal treated HyClone serum, 1% L-glutamine
Assay medium: DMEM (phenol red free), 1% charcoal treated HyClone serum, 1% L-glutamine, and 1% penicillin/streptomycin
3× luciferase buffer: 2% beta-mercaptoethanol, 0.6% ATP, 0.0135% luciferine in cell lysis buffer
• 1. Cells are maintained in culture medium, splitting cells when they reach 80–90% confluence • 2. To test compounds, 10,000 cells/well are plated to opaque 96 cell culture plate in 100 ul/well plating medium, culture for overnight at 37° C. in cell culture incubator • 3. Carefully remove plating medium, then add 80 ul/well of pre-warmed assay medium, add 10 ul/well testing compound (final concentration at 10 uM or 1 uM), incubate at 37° C. for 30 minutes • 4. Add 10 ul/well freshly prepared DHT (final concentration at 100 pM) to each well, incubate at 37° C. for 17 hr (overnight) • 5. Add 50 ul/well 3× luciferase buffer, incubate at room temperature for 5 minutes, then count on Luminometer.
The fold induction over background by 100 pM DHT in the absence of testing compounds is standardized as 100% and experimental result is expressed as percentage of inhibition by testing compounds.

SMILES | IC50
O=c1cc(C(F)(F)F)c2cc(Cc3ccc(S(=O)(=O)N[C@H]4[C@@H]5CC[C@@H](C5)[C@H]4CO)cc3)ccc2[nH]1 (stereo in doubt) [Example 88, N-(3-Hydroxymethyl-bicyclo[2.2.1]hept-2-yl)-4-(2-oxo-4-trifluoromethyl-1,2-dihydroquinolin-6-ylmethyl)-benzenesulfonamide] | > 10 µM
O=c1cc(C(F)(F)F)c2cc(Cc3ccc(S(=O)(=O)NCC4CCCC[C@H]4O)cc3)ccc2o1 (stereo in doubt) [Example 177, N-(2-Hydroxycyclohexylmethyl)-4-(2-oxo-4-trifluoromethyl-2H-chromen-6-ylmethyl)benzenesulfonamide] | 5.77 µM
O=c1cc(C(F)(F)F)c2cc(Cc3ccc(S(=O)(=O)N(CCO)C4CCCCC4)cc3)ccc2[nH]1 [Example 4, N-Cyclohexyl-N-(2-hydroxyethyl)-4-(2-oxo-4-trifluoromethyl-1,2-dihydroquinolin-6-ylmethyl)benzenesulfonamide] | > 10 µM
CCN(Cc1ccncc1)S(=O)(=O)c1ccc(Cc2ccc3[nH]c(=O)cc(C(F)(F)F)c3c2)cc1 [Example 5, N-Ethyl-4-(2-oxo-4-trifluoromethyl-1,2-dihydroquinolin-6-ylmethyl)-N-pyridin-4-ylmethylbenzenesulfonamide] | > 10 µM
CCCCN(CC)S(=O)(=O)c1ccc(Cc2ccc3[nH]c(=O)cc(C(F)(F)F)c3c2)cc1 [Example 6] | > 10 µM
CC(C)N(C)S(=O)(=O)c1ccc(Cc2ccc3[nH]c(=O)cc(C(F)(F)F)c3c2)cc1 [Example 7, N-Isopropyl-N-methyl-4-(2-oxo-4-trifluoromethyl-1,2-dihydroquinolin-6-ylmethyl)benzenesulfonamide] | > 10 µM
CCCN(CCO)S(=O)(=O)c1ccc(Cc2ccc3[nH]c(=O)cc(C(F)(F)F)c3c2)cc1 [Example 8, N-(2-Hydroxyethyl)-4-(2-oxo-4-trifluoromethyl-1,2-dihydroquinolin-6-ylmethyl)-N-propylbenzenesulfonamide] | 3.25 µM
O=c1cc(C(F)(F)F)c2cc(Cc3ccc(S(=O)(=O)N(CCO)Cc4ccccc4)cc3)ccc2[nH]1 [Example 9, N-Benzyl-N-(2-hydroxyethyl)-4-(2-oxo-4-trifluoromethyl-1,2-dihydroquinolin-6-ylmethyl)benzenesulfonamide] | > 10 µM
CCCN(CC1CC1)S(=O)(=O)c1ccc(Cc2ccc3[nH]c(=O)cc(C(F)(F)F)c3c2)cc1 [Example 9A, N-Cyclopropylmethyl-4-(2-oxo-trifluoromethyl-1,2-dihydroquinolin-6-ylmethyl)-N-propylbenzenesulfonamide] | 6.29 µM
CCCCN(C)S(=O)(=O)c1ccc(Cc2ccc3[nH]c(=O)cc(C(F)(F)F)c3c2)cc1 [Example 9B, N-Butyl-N-methyl-4-(2-oxo-4-trifluoromethyl-1,2-dihydroquinolin-6-ylmethyl)benzenesulfonamide] | > 10 µM
CN(CCC#N)S(=O)(=O)c1ccc(Cc2ccc3[nH]c(=O)cc(C(F)(F)F)c3c2)cc1 [Example 10, N-(2-Cyanoethyl)-N-methyl-4-(2-oxo-4-trifluoromethyl-1,2-dihydroquinolin-6-ylmethyl)benzenesulfonamide] | > 10 µM
O=c1cc(C(F)(F)F)c2cc(Cc3ccc(S(=O)(=O)N(Cc4ccccc4)Cc4ccccc4)cc3)ccc2[nH]1 [Example 11, N,N-Dibenzyl-4-(2-oxo-4-trifluoromethyl-1,2-dihydroquinolin-6-ylmethyl)benzenesulfonamide] | > 10 µM
COCCN(CCOC)S(=O)(=O)c1ccc(Cc2ccc3[nH]c(=O)cc(C(F)(F)F)c3c2)cc1 [Example 12, N,N-Bis(2-methoxyethyl)-4-(2-oxo-4-trifluoromethyl-1,2-dihydroquinolin-6-ylmethyl)benzenesulfonamide] | > 10 µM
CN(CCc1ccccn1)S(=O)(=O)c1ccc(Cc2ccc3[nH]c(=O)cc(C(F)(F)F)c3c2)cc1 [Example 13, N-Methyl-4-(2-oxo-4-trifluoromethyl-1,2-dihydroquinolin-6-ylmethyl)-N-(2-pyridin-2-ylethyl)benzenesulfonamide] | > 10 µM
C#Cc1ccc(NS(=O)(=O)c2ccc(Cc3ccc4[nH]c(=O)cc(C(F)(F)F)c4c3)cc2)cc1 [Example 15, N-(4-Ethynylphenyl)-4-(2-oxo-4-trifluoromethyl-1,2-dihydroquinolin-ylmethyl)benzenesulfonamide] | 2.8 µM
N#Cc1cccc(NS(=O)(=O)c2ccc(Cc3ccc4[nH]c(=O)cc(C(F)(F)F)c4c3)cc2)c1 [Example 16, N-(3-Cyanophenyl)-4-(2-oxo-4-trifluoromethyl-1,2-dihydroquinolin-6-ylmethyl)-benzenesulfonamide] | 2.02 µM
CCc1cccc(NS(=O)(=O)c2ccc(Cc3ccc4[nH]c(=O)cc(C(F)(F)F)c4c3)cc2)c1 [Example 17, N-(3-Ethylphenyl)-4-(2-oxo-4-trifluoromethyl-1,2-dihydroquinolin-6-ylmethyl)benzenesulfonamide] | > 10 µM
O=c1cc(C(F)(F)F)c2cc(Cc3ccc(S(=O)(=O)Nc4ccccc4Cl)cc3)ccc2[nH]1 [Example 18, N-(2-Chlorophenyl)-4-(2-oxo-4-triftuoromethyl-1,2-dihydroquinolin-6-ylmethyl)-benzenesulfonamide] | 3.16 µM
O=c1cc(C(F)(F)F)c2cc(Cc3ccc(S(=O)(=O)Nc4ccc5ncccc5c4)cc3)ccc2[nH]1 [Example 19, 4-(2-Oxo-4-trifluoromethyl-1,2-dihydroquinolin-6-ylmethyl)-N-quinolin-6-ylbenzenesulfonamide] | > 10 µM
O=c1cc(C(F)(F)F)c2cc(Cc3ccc(S(=O)(=O)Nc4ccc5c(c4)CCC5)cc3)ccc2[nH]1 [Example 20, N-Indan-5-yl-4-(2-oxo-4-trifluoromethyl-1,2-dihydroquinolin-6-ylmethyl)-benzenesulfonamide] | > 10 µM
CC(=O)c1cccc(NS(=O)(=O)c2ccc(Cc3ccc4[nH]c(=O)cc(C(F)(F)F)c4c3)cc2)c1 [Example 21, N-(3-Acetylphenyl)-4-(2-oxo-4-trifluoromethyl-1,2-dihydroquinolin-6-ylmethyl)benzenesulfonamide] | 9.09 µM
Cc1ccc(-c2ccccc2)cc1NS(=O)(=O)c1ccc(Cc2ccc3[nH]c(=O)cc(C(F)(F)F)c3c2)cc1 [Example 22, N-(4-Methylbiphenyl-3-yl)-4-(2-oxo-4-trifluoromethyl-1,2-dihydroquinolin-6-ylmethyl)-benzenesulfonamide] | > 10 µM
CC(O)c1cccc(NS(=O)(=O)c2ccc(Cc3ccc4[nH]c(=O)cc(C(F)(F)F)c4c3)cc2)c1 (centres unmarked) [Example 23, N[-3-(1-Hydroxyethyl)phenyl]-4-(2-oxo-4-trifluoromethyl-1,2-dihydroquinolin-6-ylmethyl)-benzenesulfonamide] | 1.67 µM
Cc1ccc(F)cc1NS(=O)(=O)c1ccc(Cc2ccc3[nH]c(=O)cc(C(F)(F)F)c3c2)cc1 [Example 25] | 1.12 µM
O=c1cc(C(F)(F)F)c2cc(Cc3ccc(S(=O)(=O)Nc4ccc(Cl)cc4)cc3)ccc2[nH]1 [Example 26, N-(4-Chlorophenyl)-4-(2-oxo-4-trifluoromethyl-1,2-dihydroquinolin-6-ylmethyl)-benzenesulfonamide] | 1.97 µM
O=c1cc(C(F)(F)F)c2cc(Cc3ccc(S(=O)(=O)Nc4cc5ccccc5cn4)cc3)ccc2[nH]1 [Example 27, N-Isoquinolin-3-yl-4-(2-oxo-4-trifluoromethyl-1,2-dihydroquinolin-6-ylmethyl)-benzenesulfonamide] | > 10 µM
